One experiment addresses HIS-AXL 473-End (Homo sapiens (Human), UniProt P30530). The experiment in a line: AXL kinase homogeneous time resolved fluorescence (HTRF) binding assay. The note with it: 1 nM kinase, fluorescein-labeled kinase tracer at Kd, 60 minutes at room temperature. Here is the method: (§1) MERTK, AXL, TYRO3 Kinase Homogeneous Time Resolved Fluorescence (HTRF) Assay
(§2) Assays were performed in black, flat-bottom, 1536-well plates. The reactions were incubated at room temperature for 60 minutes, following which the HTRF signals, ratio of fluorescence intensities at emission wavelengths for fluorescein acceptor (520 nm) and terbium donor (495 nm), the 520/495 ratio, were measured on the Envision Plate reader. Inhibition data were calculated from the 520/495 ratio generated by the no protein control reactions for 100% inhibition and vehicle-only reactions for 0% inhibition, and dose response curves generated to determine the concentration required for inhibiting 50% of the HTRF signal (IC50). Compounds were dissolved at 10 mM in dimethylsulfoxide (DMSO) and evaluated at eleven concentrations.
For orientation: Time-resolved FRET reads energy transfer from a long-lived donor to a nearby acceptor.

In the next experiment the target is GST-MERTK 578-872 (Homo sapiens (Human), UniProt Q12866). Put plainly: MERTK kinase homogeneous time resolved fluorescence (HTRF) binding assay. The note with it: 1 nM kinase, fluorescein-labeled kinase tracer at Kd, 60 minutes at room temperature; read-out: Mer HTRF IC50. As to the method:
as §1, §2

Molecules are shown by their SMILES.

Drawing on patent publication US20230339891A1, “URACIL DERIVATIVES AS MER-AXL INHIBITORS” (BRISTOL-MYERS SQUIBB COMPANY, priority 2018, published 2023), this text covers IC50 for 17 compounds.

HIS-AXL 473-End, sequence (P30530 473-894): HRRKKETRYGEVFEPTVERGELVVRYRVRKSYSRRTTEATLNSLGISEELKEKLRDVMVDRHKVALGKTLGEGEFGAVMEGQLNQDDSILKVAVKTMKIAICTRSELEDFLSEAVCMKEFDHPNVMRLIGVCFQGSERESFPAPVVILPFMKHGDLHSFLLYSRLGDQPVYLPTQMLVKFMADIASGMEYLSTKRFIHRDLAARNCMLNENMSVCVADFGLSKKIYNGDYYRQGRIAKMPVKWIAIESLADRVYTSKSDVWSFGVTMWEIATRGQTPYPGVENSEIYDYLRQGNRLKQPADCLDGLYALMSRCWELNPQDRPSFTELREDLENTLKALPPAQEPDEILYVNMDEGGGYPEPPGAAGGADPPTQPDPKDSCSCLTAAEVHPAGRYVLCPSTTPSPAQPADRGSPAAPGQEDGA
GST-MERTK 578-872, sequence (Q12866 578-872): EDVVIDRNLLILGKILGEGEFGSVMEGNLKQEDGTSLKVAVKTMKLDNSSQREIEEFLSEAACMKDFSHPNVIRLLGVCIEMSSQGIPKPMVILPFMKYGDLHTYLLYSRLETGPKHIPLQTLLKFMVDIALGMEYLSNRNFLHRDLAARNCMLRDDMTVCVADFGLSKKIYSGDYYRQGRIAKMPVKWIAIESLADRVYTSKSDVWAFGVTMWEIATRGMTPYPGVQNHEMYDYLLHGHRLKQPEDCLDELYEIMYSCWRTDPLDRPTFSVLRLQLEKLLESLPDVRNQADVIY

For the compound `COC(=O)c1ccc(Nc2cc(Oc3ccc(NC(=O)c4cn(C(C)C)c(=O)n(-c5ccc(F)cc5)c4=O)cc3F)ccn2)nc1` [Example 14, Methyl 6-((4-(2-fluoro-4-(3-(4-fluorophenyl)-1-isopropyl-2,4-dioxo-1,2,3,4-tetrahydropyrimidine-5-carboxamido)phenoxy)pyridin-2-yl)amino)nicotinate], the IC50 (commonly the concentration needed to halve the response being measured) at HIS-AXL 473-End is 3.6 nM; on GST-MERTK 578-872 it was 11 nM.

Turning to `CC(C)n1cc(C(=O)Nc2ccc(Oc3ccnc(Nc4ccc(C(C)(C)O)cn4)c3)c(F)c2)c(=O)n(-c2ccc(F)cc2)c1=O` [Example 15], the IC50 came to 1.7 nM on HIS-AXL 473-End and 8 nM on GST-MERTK 578-872.

On to `CC(C)n1cc(C(=O)Nc2ccc(Oc3ccnc(Nc4ccc(C(N)=O)cn4)c3)c(F)c2)c(=O)n(-c2ccc(F)cc2)c1=O` [Example 16], for which the IC50 came out at 1.1 nM on HIS-AXL 473-End and 5.8 nM at GST-MERTK 578-872.

For `CC(C)n1cc(C(=O)Nc2ccc(Oc3ccnc(Nc4ccc(C(=O)N(C)C)cn4)c3)c(F)c2)c(=O)n(-c2ccc(F)cc2)c1=O` [Example 17], the IC50 at HIS-AXL 473-End came out at 2.7 nM; at GST-MERTK 578-872, 1.9 nM.

As for `CC(C)n1cc(C(=O)Nc2ccc(Oc3ccnc(Nc4ccc(S(C)(=O)=O)cn4)c3)c(F)c2)c(=O)n(-c2ccc(F)cc2)c1=O` [Example 18], the IC50 at HIS-AXL 473-End was 11 nM; at GST-MERTK 578-872, 18 nM.

Regarding `CC(C)n1cc(C(=O)Nc2ccc(Oc3ccnc(Nc4ccc(S(N)(=O)=O)cn4)c3)c(F)c2)c(=O)n(-c2ccc(F)cc2)c1=O` [Example 19], the IC50 at HIS-AXL 473-End is 1.6 nM; on GST-MERTK 578-872 it was 4.4 nM.

In the case of `CC(C)n1cc(C(=O)Nc2ccc(Oc3ccnc(Nc4ccc(S(=O)(=O)N(C)C)cn4)c3)c(F)c2)c(=O)n(-c2ccc(F)cc2)c1=O` [Example 20], the IC50 at HIS-AXL 473-End came to 4.7 nM; at GST-MERTK 578-872, 12 nM.

As to `CC(C)n1cc(C(=O)Nc2ccc(Oc3ccnc(Nc4ccc(N5CCOCC5)cn4)c3)c(F)c2)c(=O)n(-c2ccc(F)cc2)c1=O` [Example 21], the IC50 at HIS-AXL 473-End came to 39 nM; at GST-MERTK 578-872 it was 164 nM.

In the case of `CC(C)n1cc(C(=O)Nc2ccc(Oc3ccnc(Nc4cc(N5CCOCC5)ccn4)c3)c(F)c2)c(=O)n(-c2ccc(F)cc2)c1=O` [Example 22], the IC50 on HIS-AXL 473-End came to 8.9 nM; at GST-MERTK 578-872 it was 49 nM.

With `CC(C)n1cc(C(=O)Nc2ccc(Oc3ccnc(Nc4ccc(-c5nccs5)cn4)c3)c(F)c2)c(=O)n(-c2ccc(F)cc2)c1=O` [Example 23], the results for the IC50 at HIS-AXL 473-End and at GST-MERTK 578-872 were 31 nM and 55 nM, respectively.

On to `CC(C)n1cc(C(=O)Nc2ccc(Oc3ccnc(Nc4ccc(-n5ccnc5)cn4)c3)c(F)c2)c(=O)n(-c2ccc(F)cc2)c1=O` [Example 24], for which the IC50 at HIS-AXL 473-End turned out to be 5.6 nM; on GST-MERTK 578-872, 12 nM.

In the case of `CC(C)n1cc(C(=O)Nc2ccc(Oc3ccnc(Nc4ccc5cc[nH]c5n4)c3)c(F)c2)c(=O)n(-c2ccc(F)cc2)c1=O` [Example 25], the results for the IC50 on HIS-AXL 473-End and at GST-MERTK 578-872 were 3.6 nM and 13 nM, respectively.

For the compound `CC(C)n1cc(C(=O)Nc2ccc(Oc3ccnc(Nc4cnc(C#N)cn4)c3)c(F)c2)c(=O)n(-c2ccc(F)cc2)c1=O` [Example 26], the IC50 was 18 nM on HIS-AXL 473-End and 60 nM on GST-MERTK 578-872.

Take `Cc1cnc(Nc2cc(Oc3ccc(NC(=O)c4cn(C(C)C)c(=O)n(-c5ccc(F)cc5)c4=O)cc3F)ccn2)cn1` [Example 27]: the IC50 turned out to be 6.8 nM on HIS-AXL 473-End and 19 nM on GST-MERTK 578-872.

As for `CCc1cnc(Nc2cc(Oc3ccc(NC(=O)c4cn(C(C)C)c(=O)n(-c5ccc(F)cc5)c4=O)cc3F)ccn2)cn1` [Example 28], the IC50 is 7.4 nM on HIS-AXL 473-End and 20 nM at GST-MERTK 578-872.

Regarding `CCOc1cnc(Nc2cc(Oc3ccc(NC(=O)c4cn(C(C)C)c(=O)n(-c5ccc(F)cc5)c4=O)cc3F)ccn2)cn1` [Example 29], the IC50 at HIS-AXL 473-End was 7.2 nM; on GST-MERTK 578-872, 182 nM.

On to `CC(C)n1cc(C(=O)Nc2ccc(Oc3ccnc(Nc4ncc(C(F)(F)F)cn4)c3)c(F)c2)c(=O)n(-c2ccc(F)cc2)c1=O` [Example 30], for which the IC50 came out at 48 nM on HIS-AXL 473-End and 165 nM on GST-MERTK 578-872.
